According to patent US20030104507A1, “Method for detection of ATP” (priority 2001, published 2003):

Tested on: ATPase activity endogenous to L929 cell lysate
Assay: Detergent inhibition of ATPase endogenous to L929 cell lysate (ATP remaining by luciferase luminescence, 22° C.)
Assay type: biochemical
Parameters: key to Relative ATPase Activity, slope det/slope lysate: slope with detergent / slope without; ≥1.0 = 100% activity, 0.5 = 50%
Procedure: Three separate detergents in each of four detergent classes were tested: anionic [SDS (Sodium dodecyl sulfate), Bioterge (an α olefin sulfate), and sodium deoxycholate], nonionic [TRITON X-100, BigCHAP (N,N-bis(3-D-Gluconamidopropyl)cholamide) and THESIT (polyethylene glycol 400 dodecyl ether, Fluka, #88315)], cationic [BDDABr (Benzyldimethyldodecylammonium bromide), CTAB (Cetyltrimethylammonium bromide), and DTAB (dodecyltrimethylammonium bromide)] and zwitterionic [CHAPS (3[(3-Cholamidopropyl)dimethylammonio]propanesulfonic acid), CHAPSO (3-([3-Cholamidopropyl]dimethylammonio)-2-hydroxy-1-propanesulfonate), and Sulfobetaine 3-10 ([…]-N,N-dimethyl-3-ammonio-1-propanesulfonate)]. Detergents were obtained from Sigma, Fluka and Aldrich.
L929 cells (ATCC CCL-1; 1.5×10^5 cells/ml) in F12/DMEM (Hyclone, SH30023) containing 10% horse serum (Hyclone, SH30074) were frozen and thawed for four cycles to create a cell lysate. Then 50 μl of stock detergent solutions [10%, 5.0%, 1.0%, and 0.5% (w/v)] were separately added to 450 μl cell lysate, creating a final detergent concentration in the cell lysate sample of 1.0%, 0.5%, 0.1%, and 0.05%, respectively (these percentage values are those used in Tables D and E herein below). Control samples contained either lysate only or 1.0 μM ATP in 15 mM HEPES buffer (pH 7.5). All samples were incubated at 22° C. (room temperature) for the duration of the experiment.
At various timepoints, 20 μl from each sample/detergent mixture was added to a 96-well luminometer plate in triplicate, and then 100 μl of a solution (“luciferase-luciferin” or “L/L reagent”) containing 25 mM HEPES buffer (pH 7.5), 40 μg luciferase enzyme LucPpe2m146 (Promega, E140), 100 μM luciferin (Promega), and 10 mM MgSO4 was added to each well. The L/L reagent was stored at 4° C. for the duration of the experiment and then allowed to reach ambient temperature just before assaying. After mixing the contents of the plate, light output was measured with a Dynex MLX microtiter plate luminometer (Chantilly, Va.), 0.5 second reads per well with the first measurement taken five minutes after the detergent solution was combined with the sample. The average relative light units and the timepoint at which it was measured (rlu; Table D) and percent of remaining luciferase activity at the timepoint (Table E) are reported; controls were run with each set of experimental conditions as indicated. The cationic and anionic detergents were assayed on one day with one set of controls. The zwitterionic and nonionic detergents were assayed on a separate day with a separate set of controls. The DTAB at 0.5% was assayed on both days (1 and 2).
The experiment was performed as detailed in Example 1. The average relative light unit values and the percent of ATP remaining values are listed below in Table F and G respectively.
The log of the percent of ATP remaining after original timepoint values from Table E and Table G were plotted on the y axis against time (in minutes) on the x axis. The slope of the line generated by these values in the presence of detergent was divided by the slope of the line generated by the values in the absence of detergent (lysate control) resulting in the Relative ATPase Activity values listed below in Table H.
A relative activity value of 1.0 or greater indicates 100% cellular ATPase activity at the concentration of detergent tested. A relative activity value of 0.5 indicates a two-fold (or 50%) decrease in the level of cellular ATPase activity at the concentration of detergent tested when compared to the ATPase activity level in the absence of the detergent. A relative activity value of 0.2 indicates a five-fold (or 80%) decrease in the level of cellular ATPase activity at the concentration of detergent tested when compared to the ATPase activity level in the absence of the detergent.

C[C@H](CCC(=O)NCCC[N+](C)(C)CCCS(=O)(=O)[O-])[C@H]1CC[C@H]2[C@@H]3[C@H](O)C[C@@H]4C[C@H](O)CC[C@]4(C)[C@H]3C[C@H](O)[C@]12C [CHAPS, 3[(3-Cholamidopropyl)dimethylammonio]propanesulfonic acid]
Average Relative Light Unit Values (0.05% detergent, 5 min): 6356.62 rlu
Percent ATP Remaining (0.05% detergent, 5 min): 100%
Average Relative Light Unit Values (0.05% detergent, 75 min): 2305.56 rlu
Percent ATP Remaining (0.05% detergent, 75 min): 36.3%
Average Relative Light Unit Values (0.05% detergent, 169 min): 1143.02 rlu
Percent ATP Remaining (0.05% detergent, 169 min): 18.0%
Average Relative Light Unit Values (0.05% detergent, 222 min): 500.80 rlu
Percent ATP Remaining (0.05% detergent, 222 min): 7.9%
Average Relative Light Unit Values (0.05% detergent, 260 min): 240.81 rlu
Percent ATP Remaining (0.05% detergent, 260 min): 3.8%
Relative ATPase Activity, slope det/slope lysate (0.05 percent detergent): 1.061
Slope (log percent ATP remaining vs time in minutes) (0.05 percent detergent): −0.0056
Average Relative Light Unit Values (0.1% detergent, 5 min): 6515.77 rlu
Percent ATP Remaining (0.1% detergent, 5 min): 100%
Average Relative Light Unit Values (0.1% detergent, 75 min): 2583.65 rlu
Percent ATP Remaining (0.1% detergent, 75 min): 39.7%
Average Relative Light Unit Values (0.1% detergent, 169 min): 1236.53 rlu
Percent ATP Remaining (0.1% detergent, 169 min): 19.0%
Average Relative Light Unit Values (0.1% detergent, 222 min): 448.96 rlu
Percent ATP Remaining (0.1% detergent, 222 min): 8.6%
Average Relative Light Unit Values (0.1% detergent, 260 min): 284.18 rlu
Percent ATP Remaining (0.1% detergent, 260 min): 4.4%
Relative ATPase Activity, slope det/slope lysate (0.10 percent detergent): 1.023
Slope (log percent ATP remaining vs time in minutes) (0.10 percent detergent): −0.0054
Average Relative Light Unit Values (0.5% detergent, 5 min): 7368.91 rlu
Percent ATP Remaining (0.5% detergent, 5 min): 100%
Average Relative Light Unit Values (0.5% detergent, 75 min): 4048.24 rlu
Percent ATP Remaining (0.5% detergent, 75 min): 54.9%
Average Relative Light Unit Values (0.5% detergent, 169 min): 2548.39 rlu
Percent ATP Remaining (0.5% detergent, 169 min): 34.6%
Average Relative Light Unit Values (0.5% detergent, 222 min): 1438.57 rlu
Percent ATP Remaining (0.5% detergent, 222 min): 19.5%
Average Relative Light Unit Values (0.5% detergent, 260 min): 909.15 rlu
Percent ATP Remaining (0.5% detergent, 260 min): 12.3%
Relative ATPase Activity, slope det/slope lysate (0.50 percent detergent): 0.688
Slope (log percent ATP remaining vs time in minutes) (0.50 percent detergent): −0.0036
Average Relative Light Unit Values (1.0% detergent, 5 min): 7241.33 rlu
Percent ATP Remaining (1.0% detergent, 5 min): 100%
Average Relative Light Unit Values (1.0% detergent, 75 min): 3816.06 rlu
Percent ATP Remaining (1.0% detergent, 75 min): 52.7%
Average Relative Light Unit Values (1.0% detergent, 169 min): 2348.28 rlu
Percent ATP Remaining (1.0% detergent, 169 min): 32.4%
Average Relative Light Unit Values (1.0% detergent, 222 min): 1322.30 rlu
Percent ATP Remaining (1.0% detergent, 222 min): 18.3%
Average Relative Light Unit Values (1.0% detergent, 260 min): 809.22 rlu
Percent ATP Remaining (1.0% detergent, 260 min): 11.2%
Relative ATPase Activity, slope det/slope lysate (1.00 percent detergent): 0.715
Slope (log percent ATP remaining vs time in minutes) (1.00 percent detergent): −0.0038

C[C@H](CCC(=O)NCCC[N+](C)(C)CC(O)CS(=O)(=O)[O-])[C@H]1CC[C@H]2[C@@H]3[C@H](O)C[C@@H]4C[C@H](O)CC[C@]4(C)[C@H]3C[C@H](O)[C@]12C (stereo partly drawn) [CHAPSO, 3-([3-Cholamidopropyl]dimethylammonio)-2-hydroxy-1-propanesulfonate]
Average Relative Light Unit Values (0.05% detergent, 5 min): 6396.53 rlu
Percent ATP Remaining (0.05% detergent, 5 min): 100%
Average Relative Light Unit Values (0.05% detergent, 75 min): 2424.54 rlu
Percent ATP Remaining (0.05% detergent, 75 min): 37.9%
Average Relative Light Unit Values (0.05% detergent, 169 min): 1124.83 rlu
Percent ATP Remaining (0.05% detergent, 169 min): 17.6%
Average Relative Light Unit Values (0.05% detergent, 222 min): 480.09 rlu
Percent ATP Remaining (0.05% detergent, 222 min): 7.5%
Average Relative Light Unit Values (0.05% detergent, 260 min): 238.80 rlu
Percent ATP Remaining (0.05% detergent, 260 min): 3.7%
Relative ATPase Activity, slope det/slope lysate (0.05 percent detergent): 1.080
Slope (log percent ATP remaining vs time in minutes) (0.05 percent detergent): −0.0057
Average Relative Light Unit Values (0.1% detergent, 5 min): 6549.85 rlu
Percent ATP Remaining (0.1% detergent, 5 min): 100%
Average Relative Light Unit Values (0.1% detergent, 75 min): 2584.56 rlu
Percent ATP Remaining (0.1% detergent, 75 min): 39.5%
Average Relative Light Unit Values (0.1% detergent, 169 min): 1210.14 rlu
Percent ATP Remaining (0.1% detergent, 169 min): 18.5%
Average Relative Light Unit Values (0.1% detergent, 222 min): 558.69 rlu
Percent ATP Remaining (0.1% detergent, 222 min): 8.5%
Average Relative Light Unit Values (0.1% detergent, 260 min): 280.84 rlu
Percent ATP Remaining (0.1% detergent, 260 min): 4.3%
Relative ATPase Activity, slope det/slope lysate (0.10 percent detergent): 1.030
Slope (log percent ATP remaining vs time in minutes) (0.10 percent detergent): −0.0054
Average Relative Light Unit Values (0.5% detergent, 5 min): 7422.26 rlu
Percent ATP Remaining (0.5% detergent, 5 min): 100%
Average Relative Light Unit Values (0.5% detergent, 75 min): 4089.32 rlu
Percent ATP Remaining (0.5% detergent, 75 min): 55.1%
Average Relative Light Unit Values (0.5% detergent, 169 min): 2581.01 rlu
Percent ATP Remaining (0.5% detergent, 169 min): 34.8%
Average Relative Light Unit Values (0.5% detergent, 222 min): 1460.54 rlu
Percent ATP Remaining (0.5% detergent, 222 min): 19.7%
Average Relative Light Unit Values (0.5% detergent, 260 min): 923.81 rlu
Percent ATP Remaining (0.5% detergent, 260 min): 12.4%
Relative ATPase Activity, slope det/slope lysate (0.50 percent detergent): 0.685
Slope (log percent ATP remaining vs time in minutes) (0.50 percent detergent): −0.0036
Average Relative Light Unit Values (1.0% detergent, 5 min): 7160.63 rlu
Percent ATP Remaining (1.0% detergent, 5 min): 100%
Average Relative Light Unit Values (1.0% detergent, 75 min): 3803.84 rlu
Percent ATP Remaining (1.0% detergent, 75 min): 53.1%
Average Relative Light Unit Values (1.0% detergent, 169 min): 2376.31 rlu
Percent ATP Remaining (1.0% detergent, 169 min): 33.2%
Average Relative Light Unit Values (1.0% detergent, 222 min): 1332.97 rlu
Percent ATP Remaining (1.0% detergent, 222 min): 18.6%
Average Relative Light Unit Values (1.0% detergent, 260 min): 840.57 rlu
Percent ATP Remaining (1.0% detergent, 260 min): 11.7%
Relative ATPase Activity, slope det/slope lysate (1.00 percent detergent): 0.703
Slope (log percent ATP remaining vs time in minutes) (1.00 percent detergent): −0.0037
